Test results: US20070254903A1, “Novel Spiroindoline or Spiroisoquinoline Compounds, Methods of Use and Compositions Thereof” (ARENA PHARMACEUTICALS, INC., priority 2003, published 2007)

What follows are compounds tested against T1, human Mas receptor (Homo sapiens, UniProt P04201) (assay: Mas receptor IP3 assay (inverse agonist assay)). Conditions: HEK293 cells over-expressing human Mas receptor; average from several experiments.
T1 construct: expressed in transfected cells
T1 sequence (P04201 1-325): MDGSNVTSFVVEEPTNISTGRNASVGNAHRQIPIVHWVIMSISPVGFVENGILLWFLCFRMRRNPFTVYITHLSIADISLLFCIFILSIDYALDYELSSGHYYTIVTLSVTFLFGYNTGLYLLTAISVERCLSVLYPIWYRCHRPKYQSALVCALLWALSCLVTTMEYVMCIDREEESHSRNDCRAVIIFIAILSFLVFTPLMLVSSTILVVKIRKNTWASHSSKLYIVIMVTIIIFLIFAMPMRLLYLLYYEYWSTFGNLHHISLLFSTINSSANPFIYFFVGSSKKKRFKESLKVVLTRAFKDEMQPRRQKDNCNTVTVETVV
Format: cell-based
Procedure: The Mas receptor IP3 assay was performed using a mammalian cell line (HEK293) which was transfected with a plasmid containing the human Mas receptor and selected for stable expression of the receptor. For the inverse agonist assay, higher levels of Mas receptor constitutive activity were desired. To achieve this, Mas receptor expression levels were increased by transiently transfecting the same Mas receptor stable cell line with additional human Mas receptor plasmid DNA following standard procedures. These cells were used in the Mas receptor IP3 assay approximately 24 hours post-transfection.
Cells were split into 96-well plates (50,000 cells/well) and allowed to attach for a period of 6 hours. The growth medium was then replaced with medium supplemented with 4 μCi/ml [^3H]myo-inositol (100 μl; Perkin Elmer Life Sciences) and the cells were allowed to incubate for approximately 20 hours. Test compounds were serially diluted in inositol-free media containing 10 mM LiCl. The media in the plates was removed by aspiration, replaced with these test compound solutions and incubated at 37° C. for 1 hour. Following this incubation, the media was removed by aspiration and replaced with buffer containing 0.1M formic acid. The plates were then frozen overnight at −80° C. to achieve complete cell lysis.
The following day, the assay plates were thawed at room temperature. The thawed contents were then transfered to 96-well filter plates (Millipore, Multiscreen) pre-loaded with resin (Biorad, AG1-X8 100-200 mesh, formate form). The plate was filtered using a vacuum manifold and the resin was washed multiple times with water. An elution buffer was then applied (200 μl, 0.2M Ammonium formate/0.1M formic acid) and the resulting eluent was collected, under vacuum, in a 96-well collection plate. Aliquots of the eluent (80 μl) were transferred to filter plates (Whatman, Unifilter GF/C) and dried in a 45° C. oven overnight. Dried plates were counted on a scintillation counter following the addition of an appropriate scintillant (Perkin Elmer Life Sciences, Optiphase Supermix or Hi-Safe 3).

| SMILES | IC50 [µM] |
| --- | --- |
| C=CCN1CCC2(CC1)CN(C(=O)c1cccnc1Cl)c1ccc(F)cc12 [Compound 93, 1′-(allyl)-1,2-dihydro-5-fluoro-1-(2-chloro-pyridine-3-carbonyl)-spiro[3H-indole-3,4′-piperidine]] | 0.841 |
| C=CCN1CCC2(CC1)CN(S(=O)(=O)c1ccc(Cl)cc1Cl)c1ccc(F)cc12 [Compound 185, 1′-(allyl)-1,2-dihydro-5-fluoro-1-(2,4-dichloro-benzenesulfonyl)-spiro[3H-indole-3,4′-piperidine]] | 0.956 |
| C=CCN1CCC2(CC1)CN(S(=O)(=O)c1ccc(Cl)s1)c1ccc(F)cc12 [Compound 214, 1′-(allyl)-1,2-dihydro-5-fluoro-1-(5-chloro-thiophene-2-sulfonyl)-spiro[3H-indole-3,4′-piperidine]] | 0.455 |
| COc1ccc(C(=O)N2CC3(CCN(CC4CC4)CC3)c3cc(F)ccc32)cc1 [Compound 31, 1′-(cyclopropylmethyl)-1,2-dihydro-5-fluoro-1-(4-methoxy-benzoyl)-spiro[3H-indole-3,4′-piperidine]] | 0.9 |
| C=CCN1CCC2(CC1)CN(C(=O)c1ccc(F)c(C(F)(F)F)c1)c1ccc(F)cc12 [Compound 88, 1′-(allyl)-1,2-dihydro-5-fluoro-1-(3-trifluoromethyl-4-fluoro-benzoyl)-spiro[3H-indole-3,4′-piperidine]] | 0.896 |
| O=C(c1cccc(F)c1F)N1CC2(CCN(CC3CC3)CC2)c2cc(F)ccc21 [Compound 142, 1′-(cyclopropylmethyl)-1,2-dihydro-5-fluoro-1-(2,3-difluoro-benzoyl)-spiro[3H-indole-3,4′-piperidine]] | 0.48 |
| O=C(c1ccc2ccccc2c1)N1CC2(CCN(CC3CC3)CC2)c2cc(F)ccc21 [Compound 160, 1′-(cyclopropylmethyl)-1,2-dihydro-5-fluoro-1-(naphthylene-2-carbonyl)-spiro[3H-indole-3,4′-piperidine]] | 0.721 |
| C=CCN1CCC2(CC1)CN(C(=O)c1cccnc1SC)c1ccc(F)cc12 [Compound 215, 1′-(allyl)-1,2-dihydro-5-fluoro-1-(2-methylsulfanyl-pyridine-3-carbonyl)-spiro[3H-indole-3,4′-piperidine]] | 0.607 |
| C=CCN1CCC2(CC1)CN(C(=O)c1cccc(Cl)c1)c1ccc(F)cc12 [Compound 86, 1′-(allyl)-1,2-dihydro-5-fluoro-1-(3-chloro-benzoyl)-spiro[3H-indole-3,4′-piperidine]] | 0.705 |
| C=CCN1CCC2(CC1)CN(C(=O)c1ccc(F)cc1F)c1ccc(F)cc12 [Compound 76, 1′-(allyl)-1,2-dihydro-5-fluoro-1-(2,4-difluoro-benzoyl)-spiro[3H-indole-3,4′-piperidine]] | 0.936 |
| O=C1c2ccccc2-c2cccc(C(=O)N3CC4(CCN(CC5CC5)CC4)c4cc(F)ccc43)c21 [Compound 153, 1′-(cyclopropylmethyl)-1,2-dihydro-5-fluoro-1-(9-oxo-9H-fluorene-1-carbonyl)-spiro[3H-indole-3,4′-piperidine]] | 0.774 |
| C=CCN1CCC2(CC1)CN(C(=O)c1cccc3ccccc13)c1ccccc12 [Compound 133, 1′-(allyl)-1,2-dihydro-1-(naphthylene-1-carbonyl)-spiro[3H-indole-3,4′-piperidine]] | 0.535 |
| C=CCN1CCC2(CC1)CN(C(=O)c1ccccc1Cl)c1ccc(F)cc12 [Compound 69, 1′-(allyl)-1,2-dihydro-5-fluoro-1-(2-chloro-benzoyl)-spiro[3H-indole-3,4′-piperidine]] | 0.378 |
| C=CCN1CCC2(CC1)CN(S(=O)(=O)c1ccccc1F)c1ccc(F)cc12 [Compound 229, 1′-(allyl)-1,2-dihydro-5-fluoro-1-(2-fluoro-benzenesulfonyl)-spiro[3H-indole-3,4′-piperidine]] | 0.846 |
| C=CCN1CCC2(CC1)CN(C(=O)c1cccc(C(Cl)Cl)c1)c1ccc(F)cc12 [Compound 92, 1′-(allyl)-1,2-dihydro-5-fluoro-1-(3-dichloromethyl-benzoyl)-spiro[3H-indole-3,4′-piperidine]] | 0.592 |
| O=C(c1ccccc1F)N1CC2(CCN(CC3CC3)CC2)c2cc(F)ccc21 [Compound 139, 1′-(cyclopropylmethyl)-1,2-dihydro-5-fluoro-1-(2-fluoro-benzoyl)-spiro[3H-indole-3,4′-piperidine]] | 0.728 |

| SMILES | IC50 [µM] |
| --- | --- |
| C=CCN1CCC2(CC1)CN(C(=O)c1cc(OC)cc(OC)c1)c1ccc(F)cc12 [Compound 73, 1′-(allyl)-1,2-dihydro-5-fluoro-1-(3,5-dimethoxy-benzoyl)-spiro[3H-indole-3,4′-piperidine]] | 0.867 |
| O=S(=O)(c1ccc(Cl)cc1Cl)N1CC2(CCN(CC3CC3)CC2)c2cc(F)ccc21 [Compound 192, 1′-(cyclopropylmethyl)-1,2-dihydro-5-fluoro-1-(2,4-dichloro-benzenesulfonyl)-spiro[3H-indole-3,4′-piperidine]] | 0.891 |
| C=CCN1CCC2(CC1)CN(S(=O)(=O)c1ccccc1Cl)c1ccc(F)cc12 [Compound 206, 1′-(allyl)-1,2-dihydro-5-fluoro-1-(2-chloro-benzenesulfonyl)-spiro[3H-indole-3,4′-piperidine]] | 0.303 |
| O=C(N1CC2(CCN(CC3CC3)CC2)c2cc(F)ccc21)C12CC3CC(CC(C3)C1)C2 [Compound 168, 1′-(cyclopropylmethyl)-1,2-dihydro-5-fluoro-1-(adamantane-1-carbonyl)-spiro[3H-indole-3,4′-piperidine]] | 0.502 |
| O=C(c1ccccc1Cl)N1CC2(CCN(CC3CC3)CC2)c2ccccc21 [Compound 101, 1′-(cyclopropylmethyl)-1,2-dihydro-1-(2-chloro-benzoyl)-spiro[3H-indole-3,4′-piperidine]] | 0.791 |
| C=CCN1CCC2(CC1)CN(C(=O)c1cccc(C(Cl)Cl)c1)c1ccccc12 [Compound 102, 1′-(allyl)-1,2-dihydro-1-(3-dichloromethyl-benzoyl)-spiro[3H-indole-3,4′-piperidine]] | 0.939 |
| O=C(c1cccc(C(Cl)Cl)c1)N1CC2(CCN(CC3CC3)CC2)c2cc(F)ccc21 [Compound 147, 1′-(cyclopropylmethyl)-1,2-dihydro-5-fluoro-1-(3-dichloromethyl-benzoyl)-spiro[3H-indole-3,4′-piperidine]] | 0.735 |
| C=CCN1CCC2(CC1)CN(S(=O)(=O)c1cc(Cl)c(Cl)s1)c1ccc(F)cc12 [Compound 210, 1′-(allyl)-1,2-dihydro-5-fluoro-1-(4,5-dichloro-thiophene-2-sulfonyl)-spiro[3H-indole-3,4′-piperidine]] | 0.89 |
| C=CCN1CCC2(CC1)CN(C(=O)c1ccc([N+](=O)[O-])cc1)c1ccc(F)cc12 [Compound 83, 1′-(allyl)-1,2-dihydro-5-fluoro-1-(4-nitro-benzoyl)-spiro[3H-indole-3,4′-piperidine]] | 0.757 |
| C=CCN1CCC2(CC1)CN(C(=O)c1ccccc1F)c1ccc(OC)cc12 [Compound 204, 1′-(allyl)-1,2-dihydro-5-methoxy-1-(2-fluoro-benzoyl)-spiro[3H-indole-3,4′-piperidine]] | 0.554 |
| CN1CCC2(CC1)CN(C(=O)c1cccc(C(Cl)Cl)c1)c1ccc(F)cc12 [Compound 199, 1′-(methyl)-1,2-dihydro-5-fluoro-1-(3-dichloromethyl-benzoyl)-spiro[3H-indole-3,4′-piperidine]] | 0.382 |
| C=CCN1CCC2(CC1)CN(C(=O)c1cccc3ccccc13)c1ccc(F)cc12 [Compound 85, 1′-(allyl)-1,2-dihydro-5-fluoro-1-(naphthalene-1-carbonyl)-spiro[3H-indole-3,4′-piperidine]] | 0.381 |
| O=C(c1cccc2ccccc12)N1CC2(CCN(CC3CC3)CC2)c2cc(F)ccc21 [Compound 159, 1′-(cyclopropylmethyl)-1,2-dihydro-5-fluoro-1-(naphthylene-1-carbonyl)-spiro[3H-indole-3,4′-piperidine]] | 0.505 |
| O=C(c1cccc(Cl)c1)N1CC2(CCN(CC3CC3)CC2)c2cc(F)ccc21 [Compound 165, 1′-(cyclopropylmethyl)-1,2-dihydro-5-fluoro-1-(3-chloro-benzoyl)-spiro[3H-indole-3,4′-piperidine]] | 0.757 |
| C=CCN1CCC2(CC1)CN(C(=O)c1ccc(Br)s1)c1ccc(F)cc12 [Compound 223, 1′-(allyl)-1,2-dihydro-5-fluoro-1-(5-bromo-thiophene-2-carbonyl)-spiro[3H-indole-3,4′-piperidine]] | 0.307 |
